The values that follow come from US20170037008A1, “PHENYL BENZYL ETHER DERIVATIVE AND PREPARATION METHOD AND APPLICATION THEREOF” (BEIJING ZHIBO BIO-MEDICAL TECHNOLOGY CO., LTD, priority 2013, published 2017).

The nature of series [1]: Biological distribution in bodies of normal mice. In kind it is in vivo, mice (ICR). The settings on record: caudal vein injection. The text has this: Through in-vivo distribution experiments, pharmacokinetic features, especially initial bran intake and brain removal situations of ^18F or ^125I labeled compounds in the bodies of mice are studied. […] Data are expressed in radioactive percentage dosage per organ (% ID/organ) and radioactive percentage dosage per gram of organ (% ID/g).

A short description of series [2]: logD of labeled ligands. In kind it is physicochemical.

On to `COc1ccc(OCc2ccc([125I])cc2)cc1` [[^125I]4], for which the Blood in series [1] (2 min) is 3.03 ± 0.54 % ID/g; in series [1] (10 min), 3.32 ± 0.65 % ID/g; in series [1] (30 min), 2.56 ± 0.93 % ID/g; in series [1] (60 min), 1.70 ± 0.50 % ID/g. Also, the Brain was 6.18 ± 0.99 % ID/g in series [1] (2 min), 3.54 ± 0.35 % ID/g in series [1] (10 min), 0.88 ± 0.15 % ID/g in series [1] (30 min) and 0.38 ± 0.05 % ID/g in series [1] (60 min). The Thyroid came to 0.14 ± 0.04 % ID/organ in series [1] (2 min), 0.12 ± 0.04 % ID/organ in series [1] (10 min), 0.08 ± 0.01 % ID/organ in series [1] (30 min) and 0.11 ± 0.02 % ID/organ in series [1] (60 min). Besides, the logD entry in series [2] was “[^125I]4 (logD = 4.00 ± 0.08)”.

Take `CN(C)c1ccc(OCc2ccc([125I])cc2)cc1` [[^125I]22]: the Blood in series [1] (2 min) was 4.01 ± 0.28 % ID/g; in series [1] (10 min), 2.46 ± 0.30 % ID/g; in series [1] (30 min), 2.53 ± 0.27 % ID/g; in series [1] (60 min) it was 1.34 ± 0.26 % ID/g. In addition, the Brain was 4.91 ± 0.60 % ID/g in series [1] (2 min), 3.26 ± 0.24 % ID/g in series [1] (10 min), 1.34 ± 0.12 % ID/g in series [1] (30 min) and 0.49 ± 0.07 % ID/g in series [1] (60 min). Also, the Thyroid was 0.11 ± 0.03 % ID/organ in series [1] (2 min), 0.12 ± 0.03 % ID/organ in series [1] (10 min), 0.16 ± 0.04 % ID/organ in series [1] (30 min) and 0.27 ± 0.04 % ID/organ in series [1] (60 min). For the same compound, the logD result in series [2] was “[^125I]22 (logD = 2.89 ± 0.09)”.

For `COc1ccc(COc2ccc([125I])cc2)cc1` [[^125I]24], the Blood in series [1] (2 min) worked out at 5.13 ± 0.62 % ID/g; in series [1] (10 min) it was 4.26 ± 0.38 % ID/g; in series [1] (30 min), 3.31 ± 0.79 % ID/g; in series [1] (60 min), 2.60 ± 1.33 % ID/g. In addition, the Brain was 4.29 ± 1.06 % ID/g in series [1] (2 min), 2.11 ± 0.38 % ID/g in series [1] (10 min), 0.73 ± 0.17 % ID/g in series [1] (30 min) and 0.32 ± 0.09 % ID/g in series [1] (60 min). Also, the Thyroid was 0.07 ± 0.03 % ID/organ in series [1] (10 min), 0.17 ± 0.03 % ID/organ in series [1] (30 min) and 0.19 ± 0.05 % ID/organ in series [1] (60 min). Moreover, the logD entry in series [2] was “[^125I]24 (logD = 4.16 ± 0.29)”.

With `FCCOc1ccc(OCc2ccc([125I])cc2)cc1` [[^125I]31a], the results for the Blood in series [1] (2 min), in series [1] (10 min) and in series [1] (30 min) were 5.03 ± 0.20 % ID/g, 3.03 ± 0.48 % ID/g and 2.17 ± 0.31 % ID/g, respectively. Moreover, the Brain in series [1] (2 min) was 7.04 ± 0.89 % ID/g; in series [1] (10 min), 2.73 ± 0.25 % ID/g; in series [1] (30 min) it was 1.05 ± 0.22 % ID/g; in series [1] (60 min) it was 0.55 ± 0.11 % ID/g. Further, the Thyroid in series [1] (2 min) was found to be 0.12 ± 0.02 % ID/organ; in series [1] (10 min), 0.09 ± 0.02 % ID/organ; in series [1] (30 min) it was 0.12 ± 0.01 % ID/organ; in series [1] (60 min) it was 0.16 ± 0.03 % ID/organ. Moreover, the logD entry in series [2] is “[^125I]31a (logD = 3.96 ± 0.22)”.

On to `FCCOc1ccc(COc2ccc([125I])cc2)cc1` [[^125I]35a], for which the Blood in series [1] (2 min) was 4.96 ± 0.35 % ID/g; in series [1] (10 min) it was 3.88 ± 0.79 % ID/g; in series [1] (30 min), 3.89 ± 0.53 % ID/g; in series [1] (60 min) it was 3.01 ± 1.07 % ID/g. Further, the Brain is reported as 5.27 ± 0.98 % ID/g in series [1] (2 min), 2.28 ± 0.27 % ID/g in series [1] (10 min), 0.81 ± 0.06 % ID/g in series [1] (30 min) and 0.37 ± 0.06 % ID/g in series [1] (60 min). Besides, the Thyroid in series [1] (2 min) came to 0.13 ± 0.02 % ID/organ; in series [1] (10 min) it was 0.13 ± 0.01 % ID/organ; in series [1] (30 min), 0.19 ± 0.04 % ID/organ; in series [1] (60 min) it was 0.34 ± 0.10 % ID/organ. In series [2], the logD entry is “[^125I]35a (logD = 2.50 ± 0.23)”.
